Assay results as given in patent publication US10131652B2, “Pyrimidinyloxy benzene derivatives as herbicides” (E. I. DU PONT DE NEMOURS AND COMPANY, priority 2014, dated 2018).
Where two headings read alike, the source gives them in different places.

What was measured:
Assay in all cases: Test F pre-/postemergence plant response
Type in all cases: in vivo
[1] = system: Brazilian crabgrass (Digitaria horizontalis); details: Digitaria horizontalis, pre-emergence, scale 0 to 100, read-out: Plant response rating, Crabgrass, Brazil
Description: (§1) Seeds of plant species selected from corn (Zea mays), soybean (Glycine max), velvetleaf (Abutilon theophrasti), lambsquarters (Chenopodium album), wild poinsettia (Euphorbia heterophylla), palmer pigweed (Amaranthus palmeri), waterhemp (common waterhemp, Amaranthus rudis), surinam grass (Brachiaria decumbens), large (Lg) crabgrass (Digitaria sanguinalis), Brazilian crabgrass (Digitaria horizontalis), fall panicum (Panicum dichotomiflorum), giant foxtail (Setaria faberii), green foxtail (Setaria viridis), goosegrass (Eleusine indica), johnsongrass (Sorghum halepense), ragweed (common ragweed, Ambrosia elatior), barnyardgrass (Echinochloa crus-galli), sandbur (southern sandbur, Cenchrus echinatus), arrowleaf sida (Sida rhombifolia), Italian ryegrass (Lolium multiflorum), dayflower (Virginia (VA) dayflower, Commelina virginica), field bindweed (Convolvulus arvensis), cocklebur (common cocklebur, Xanthium strumarium), momingglory (Ipomoea coccinea), nightshade (eastern black nightshade, Solanum ptycanthum), kochia (Kochia scoparia), yellow nutsedge (Cyperus esculentus), and hairy beggarticks (Bidens pilosa), were planted into a silt loam soil and treated preemergence with test chemicals formulated in a non-phytotoxic solvent mixture which included a surfactant.
(§2) At the same time, plants from these crop and weed species and also waterhemp_RES1, (ALS & Triazine resistant common waterhemp, Amaranthus rudis), and waterhemp_RES2, (ALS & HPPD resistant common waterhemp, Amaranthus rudis) were treated with postemergence applications of test chemicals formulated in the same manner. Plants ranged in height from 2 to 18 cm for postemergence treatments (1- to 4-leaf stage).
(§3) Treated plants and controls were maintained in a greenhouse for 14 to 21 days, after which time all species were compared to controls and visually evaluated. Plant response ratings, summarized in Table F, are based on a scale of 0 to 100 where 0 is no effect and 100 is complete control. A dash (-) response means no test result.

[2] = system: large (Lg) crabgrass (Digitaria sanguinalis); details: Digitaria sanguinalis, pre-emergence, scale 0 to 100, read-out: Plant response rating, Crabgrass, Large
Description: as §1, §2, §3

soybean (Glycine max) = details: Glycine max, scale 0 to 100, read-out: Plant response rating, Soybean
Description: as §1, §2, §3

[3] = system: yellow nutsedge (Cyperus esculentus); details: Cyperus, pre-emergence, scale 0 to 100, read-out: Plant response rating, Nutsedge, Yellow
Description: as §1, §2, §3

[4] = system: wild poinsettia (Euphorbia heterophylla); details: Euphorbia heterophylla, scale 0 to 100, read-out: Plant response rating, Poinsettia, Wild
Description: as §1, §2, §3

[5] = system: velvetleaf (Abutilon theophrasti); details: Abutilon theophrasti, pre-emergence, scale 0 to 100, read-out: Plant response rating, Velvetleaf
Description: as §1, §2, §3

[6] = system: goosegrass (Eleusine indica); details: Eleusine indica, pre-emergence, scale 0 to 100, read-out: Plant response rating, Goosegrass
Description: as §1, §2, §3

kochia (Kochia scoparia) = details: Bassia scoparia, scale 0 to 100, read-out: Plant response rating, Kochia; for pest or weed control at 16 g/ha: 16 g ai/ha; for pest or weed control at 31 g/ha: 31 g ai/ha; for pest or weed control at 125 g/ha: 125 g ai/ha
Description: as §1, §2, §3

[7] = system: fall panicum (Panicum dichotomiflorum); details: Panicum dichotomiflorum, scale 0 to 100, read-out: Plant response rating, Panicum, Fall
Description: as §1, §2, §3

[8] = post-emergence, 8 g ai/ha Postemergence
[9] = post-emergence, 16 g ai/ha Postemergence
[10] = post-emergence, 31 g ai/ha Postemergence
[11] = post-emergence, 62 g ai/ha Postemergence
[12] = post-emergence, 125 g ai/ha Postemergence
[13] = pre-emergence, 8 g ai/ha Preemergence
[14] = pre-emergence, 16 g ai/ha Preemergence
[15] = pre-emergence, 31 g ai/ha Preemergence
[16] = pre-emergence, 125 g ai/ha Preemergence

Work on FC(F)c1cc(-c2ccccc2Oc2ncc(Cl)cn2)on1 [Compound 53, 5-chloro-2-[2-[3-(difluoromethyl)-5-isoxazolyl]phenoxy]pyrimidine] yielded a pest or weed control at 62 g/ha ([1]; 62 g ai/ha Preemergence) of 85%, a pest or weed control at 125 g/ha ([1]; 125 g ai/ha Preemergence) of 90% and a pest or weed control at 8 g/ha ([2]; 8 g ai/ha Preemergence) of 0%. For the same compound, the pest or weed control at 16 g/ha ([2]; 16 g ai/ha Preemergence) was 0%, the pest or weed control at 31 g/ha ([2]; 31 g ai/ha Preemergence) was 15% and the pest or weed control at 62 g/ha ([2]; 62 g ai/ha Preemergence) was 80%. The pest or weed control at 125 g/ha ([2]; 125 g ai/ha Preemergence) was 98%, the plant injury at 8 g/ha (soybean (Glycine max); [8]) was 40% and the plant injury at 16 g/ha (soybean (Glycine max); [9]) was 80%. It also gave a plant injury at 31 g/ha (soybean (Glycine max); [10]) of 95%, a plant injury at 62 g/ha (soybean (Glycine max); [11]) of 95% and a plant injury at 125 g/ha (soybean (Glycine max); [12]) of 95%. For the same compound, the plant injury at 8 g/ha (soybean (Glycine max); [13]) was 0%, the plant injury at 16 g/ha (soybean (Glycine max); [14]) was 0% and the plant injury at 31 g/ha (soybean (Glycine max); [15]) was 0%. For the same compound, the plant injury at 125 g/ha (soybean (Glycine max); [16]) was 35%, the plant injury at 62 g/ha (soybean (Glycine max); pre-emergence, Preemergence) was 0% and the pest or weed control at 8 g/ha ([3]; 8 g ai/ha Preemergence) was 0%. The pest or weed control at 16 g/ha ([3]; 16 g ai/ha Preemergence) was 0%, the pest or weed control at 31 g/ha ([3]; 31 g ai/ha Preemergence) was 0% and the pest or weed control at 125 g/ha ([3]; 125 g ai/ha Preemergence) was 20%. It also gave a pest or weed control at 62 g/ha ([3]; Preemergence) of 0%, a pest or weed control at 8 g/ha [4, 8] of 50% and a pest or weed control at 16 g/ha [4, 9] of 50%. It also gave a pest or weed control at 31 g/ha [4, 10] of 60%, a pest or weed control at 62 g/ha [4, 11] of 70% and a pest or weed control at 125 g/ha [4, 12] of 70%. It also gave a pest or weed control at 8 g/ha [4, 13] of 0%, a pest or weed control at 16 g/ha [4, 14] of 0% and a pest or weed control at 31 g/ha [4, 15] of 0%. The pest or weed control at 125 g/ha [4, 16] was 0%, the pest or weed control at 62 g/ha ([4]; pre-emergence, Preemergence) was 0% and the pest or weed control at 8 g/ha ([5]; 8 g ai/ha Preemergence) was 0%. For the same compound, the pest or weed control at 16 g/ha ([5]; 16 g ai/ha Preemergence) was 65%, the pest or weed control at 31 g/ha ([5]; 31 g ai/ha Preemergence) was 90% and the pest or weed control at 125 g/ha ([5]; 125 g ai/ha Preemergence) was 100%. For the same compound, the pest or weed control at 62 g/ha ([5]; Preemergence) was 100%, the pest or weed control at 8 g/ha ([6]; 8 g ai/ha Preemergence) was 0% and the pest or weed control at 16 g/ha ([6]; 16 g ai/ha Preemergence) was 0%. It also gave a pest or weed control at 31 g/ha ([6]; 31 g ai/ha Preemergence) of 0%, a pest or weed control at 125 g/ha ([6]; 125 g ai/ha Preemergence) of 60% and a pest or weed control at 62 g/ha ([6]; Preemergence) of 10%. The pest or weed control at 8 g/ha (kochia (Kochia scoparia); [8]) was 50%, the pest or weed control at 16 g/ha (kochia (Kochia scoparia); post-emergence, Postemergence) was 60% and the pest or weed control at 31 g/ha (kochia (Kochia scoparia); post-emergence, Postemergence) was 80%. The pest or weed control at 62 g/ha (kochia (Kochia scoparia); post-emergence, 62 g ai/ha, Postemergence) was 95%, the pest or weed control at 125 g/ha (kochia (Kochia scoparia); post-emergence, Postemergence) was 98% and the pest or weed control at 8 g/ha (kochia (Kochia scoparia); [13]) was 0%. The pest or weed control at 16 g/ha (kochia (Kochia scoparia); pre-emergence, Preemergence) was 0%, the pest or weed control at 31 g/ha (kochia (Kochia scoparia); pre-emergence, Preemergence) was 20% and the pest or weed control at 125 g/ha (kochia (Kochia scoparia); pre-emergence, Preemergence) was 100%. For the same compound, the pest or weed control at 62 g/ha (kochia (Kochia scoparia); pre-emergence, Preemergence) was 50%, the pest or weed control at 8 g/ha [7, 8] was 0% and the pest or weed control at 16 g/ha [7, 9] was 5%. The pest or weed control at 31 g/ha [7, 10] was 20%, the pest or weed control at 62 g/ha [7, 11] was 15% and the pest or weed control at 125 g/ha [7, 12] was 60%. The pest or weed control at 8 g/ha [7, 13] was 0%, the pest or weed control at 16 g/ha [7, 14] was 0% and the pest or weed control at 31 g/ha [7, 15] was 0%. The pest or weed control at 125 g/ha [7, 16] was 98% and the pest or weed control at 62 g/ha ([7]; pre-emergence, Preemergence) was 95%.
